Where a name gives a salt, the structure may show the parent alone.

The source of these data is US20170137433A1, “CRYSTALLINE, ANHYDROUS FORMS OF OXYMORPHONE HYDROCHLORIDE” (Endo Pharmaceuticals Inc., priority 2011, published 2017).

This data set is described as follows: Solid-form stability of the polymorph (heat treatment / storage observation). It counts as physicochemical. The note with it: at room temperature and at elevated temperatures; solid form obtained by heating at 200° C. for 3-4 hours in a drying oven. How it is done:
This polymorph was obtained by a heat treatment of either the above-described polymorph mixture or of oxymorphone hydrochloride monohydrate at 200° C. for a period of 3-4 hours in a drying oven.

Take `CN1CC[C@]23c4c5ccc(O)c4O[C@H]2C(=O)CC[C@@]3(O)[C@H]1C5` [second polymorph, crystalline, anhydrous hydrochloride salt of 4,5α-epoxy-3,14-dihydroxy-17-methylmorphinan-6-one]: the polymorphic form stability result was “stable at room temperature and at elevated temperatures”.
